# Test results as given in patent publication US20090081212A1, “USE AND TARGETING OF CD98 LIGHT-CHAIN PROTEINS IN THERAPIES FOR THYROID HORMONE DISORDERS” (The Government of the U.S.A., as Represented by the …, priority 2000, published 2009).
# Key:
# [1] = system: 4F2hc-IU12 heterodimers; assay: Thyroid hormone and amino acid transport by 4F2hc-IU12 heterodimers expressed in Xenopus oocytes (radiotracer uptake and its inhibition); assay type: cell-based, Xenopus laevis; conditions: for inhibition of 4F2hc-IU12 induced [3H]tryptophan uptake, in words: 1 μM tryptophan tracer, inhibitors 10 μM T4, 5 mM BCH, increasing unlabelled T3 or tryptophan; for inhibition of 4F2hc-IU12 induced 0.1 μM TH (T3) uptake, in words: inhibitors 10 μM T3/T4, 5 mM BCH, 10 mM tryptophan, data shown for T3 only; for Vmax of 4F2hc-IU12 induced transport / Km / uptake of [3H]phenylalanine and [3H]tryptophan: 4F2hc-IU12 injected oocytes; for Vmax of 4F2hc-IU12 induced transport / Km: 4 days post-injection, TH 0.05-10 μM, 60 min uptake; for Km: read-out: apparent Km of 4F2hc-IU12 induced transport; for uptake of [3H]phenylalanine and [3H]tryptophan: 50 μM amino acid, preliminary experiments
# Description: Xenopus laevis toads were purchased from the South African Xenopus Facility. Chemicals were obtained from Sigma (UK) with the exception of Collagenase A (Boehringer, UK) and Ultraspec water (Ambion, UK). Radiotracers were purchased from NEN (UK). cDNAs encoding IU12 (2.3 Kb EcoRI/ApaI fragment from pBluescriptSK-IU12) (Liang et al. 1997, Cell Res 7: 179-193) and human 4F2hc (1.85 Kb Ecor1/BamH1 fragment from pSP65-4F2) (Teixeira et al. 1987, J Biol Chem 262: 9574-9580) were subcloned into the multiple-cloning region of pSG5 (an SV-40 driven expression plasmid).
# (§1) Oocytes were isolated by collagenase treatment (Peter et al. 1996, Biochem J 318: 915-922) of ovarian tissue obtained from mature female Xenopus laevis toads (South African Xenopus Facility). Defolliculated, stage V-V1 (prophase-arrested) oocytes were selected and maintained at 18° C. in Modified Barth's Medium (MBM) containing (in mM): 88 NaCl, 1 KCL, 2.4 NaHCO3, 0.82 MgSO4.7H2O, 0.66 NaNO3, 0.75 CaCl2x2H2O, 5.0 HEPES, pH 7.6 with Tris base, 10 mg/liter gentamycin sulphate. For DNA injection, oocytes were transferred into individual wells of Tetraski plates pre-filled with MBM and centrifuged at 500 g for 10 minutes at 18° C., which causes migration of the nucleus to the cell surface and facilitates nuclear injection (Mertz & Gurdon 1977, PNAS 395: 288-291). The visible nucleus of each oocyte was injected with 2 ng DNA in 15 nl Ultraspec water using a pneumatic delivery system (Peter et al. 1996, Biochem J 318: 915-922). For co-injection studies, 2 ng of both DNAs (i.e. 4F2hc/IU12) were injected. Nuclei of control oocytes were injected with Ultraspec water. Oocytes were incubated in MBM at 18° C. for 4 days to allow expression of injected DNA before experimentation.
# (§2) All experiments were carried out at 22° C. using Na^+-free transport buffer (unless otherwise stated) containing 100 mM tetramethylammonium chloride (TMACl), 2 mM KCl; 1 mM CaCl2; 1 mM MgCl2; 10 mM HEPES, pH 7.5 with Tris). Radiolabelled amino acid uptake (3H-phenylalanine or ^3H-tryptophan over 30 min) was also measured (Peter et al. 1996, Biochem J 318: 915-922). BCH (5 mM) was used as a specific inhibitor of amino acid transport System L.
# Data are expressed as mean values±standard error of the mean (S.E.M; n=number of observations). Experimental measurements in each batch of oocytes were made on 7-11 individual oocytes. Differences between mean values were assessed using Students unpaired t-test, with significance assigned at p<0.05.
# [2] = system: T3-dependent activation of luciferase activity; assay: Thyroid-responsive luciferase reporter (TRE) in oocytes expressing 4F2hc-IU12; assay type: cell-based, Xenopus laevis; conditions: 5 mM BCH, 10 nM T3, 24 h; preliminary data from one batch of oocytes
# Description: FIG. 6. […] Ratio of luminescent counts for each oocyte type compared to thyroid-responsive luciferase (TRE)-only injected oocytes. Data shown for n=4 batches (each 7-9 oocytes). […] 4/I/R/T—4F2hc/IU12/RXRα/TRβ co-injected oocytes. RXRα/TRβ (heterodimers of RXR, or 9-cis retinoic acid receptor, and TR)— nuclear receptors for TH; *, significant change in luciferase activity compared to TRE-only injected oocytes (p<0.05). […] All incubations were performed over a 24-hour time period.
# Overexpression of the 4F2hc-IU12 heterodimer in oocytes produced a functional activation of System L transporter activity.
# [3] = system: BeWo placental choriocarcinoma cells; assay: Nuclear uptake of [125I]T3 in BeWo cells; assay type: cell-based, human
# [4] = system: T3-dependent transcriptional activation of a luciferase reporter in BeWo cells; assay: T3-induced luciferase reporter activity in BeWo cells; assay type: cell-based, human; conditions: 24 h exposure
# Description: FIG. 7. […] Infected cells were exposed to experimental conditions for 24 h prior to assay of luciferase activity.
# [5] = target: human 4F2 heavy-chain (4F2hc) glycoprotein (human) (UniProt P08195)
# [6] = system: water-injected oocytes; assay: Basal radiotracer uptake in control (water-injected) Xenopus oocytes; assay type: cell-based, Xenopus laevis; conditions: for uptake of [3H]phenylalanine and [3H]tryptophan: 50 μM amino acid, water-injected cells
# Description: as §1, §2
compound,measurement,setting,value
"NC1(C(=O)O)CC2CCC1C2 (stereo not shown) [BCH, 2-endoamino-bicycloheptane-2-carboxylic acid]","inhibition of 4F2hc-IU12 induced [3H]tryptophan uptake, in words",[1],inhibited
same,"inhibition of 4F2hc-IU12 induced 0.1 μM TH (T3) uptake, in words",[1],significantly inhibited
same,effect on T3-dependent activation of luciferase activity in oocytes expressing 4F2hc-IU12,[2],blocked
same,effect on nuclear uptake of [125I]T3,[3],inhibit
same,effect on T3-dependent transcriptional activation of a luciferase reporter,[4],inhibit
"NC(Cc1ccc(Oc2cc(I)c(O)c(I)c2)c(I)c1)C(=O)O (stereo not shown) [rT3, reverse tri-iodothyronine]",inhibition of induced 0.1 μM T3 uptake,"[1]; inhibitor 10 μM, n=3 preparations",41±4%
Xenopus laevis IU12 light-chain (lc) permease,uptake of [3H]phenylalanine and [3H]tryptophan into Xenopus oocytes (pmol/oocyte.h),[5],120
same,uptake of [125I]T3 and [125I]T4 (0.1 µM) into Xenopus oocytes (times over control (T3)),[5],2.7
"N[C@@H](Cc1cc(I)c(Oc2ccc(O)c(I)c2)c(I)c1)C(=O)O [T3, tri-iodothyronine]",control T3 uptake (absence of inhibitor),"[6]; 0.1 μM T3, water-injected oocytes",22±3 fmol/oocyte.h
"N[C@@H](Cc1cc(I)c(Oc2cc(I)c(O)c(I)c2)c(I)c1)C(=O)O [T4, thyroxine]",average increase in uptake over control (water- or IU12-injected oocytes),"[1]; 0.1 μM TH, n=5 batches of oocytes",2.1±0.5 times
same,"inhibition of 4F2hc-IU12 induced [3H]tryptophan uptake, in words",[1],has not achieved statistical significance
same,Vmax of 4F2hc-IU12 induced transport,[1],2.0±0.6 pmol/oocyte.h
same,Km,[1],6.3 µM
same,"inhibition of 4F2hc-IU12 induced 0.1 μM TH (T3) uptake, in words",[1],mutual cross-inhibition
"O=C(O)Cc1cc(I)c(Oc2ccc(O)c(I)c2)c(I)c1 [TRIAC, triodothyroacetic acid]","inhibition of T3 uptake, in words",[6]; water-injected oocytes,did not inhibit
same,"inhibition of tryptophan uptake, in words",[6]; water-injected oocytes,did not inhibit
N[C@@H](Cc1ccccc1)C(=O)O [phenylalanine],uptake of [3H]phenylalanine and [3H]tryptophan,[1],120 pmol/oocyte.h
same,uptake of [3H]phenylalanine and [3H]tryptophan,[6],10 pmol/oocyte.h
N[C@@H](Cc1c[nH]c2ccccc12)C(=O)O [tryptophan],"inhibition of 4F2hc-IU12 induced [3H]tryptophan uptake, in words",[1],concentration-dependent inhibition
same,control tryptophan uptake (absence of inhibitor),"[1]; 1 μM tryptophan, 4F2hc-IU12-injected oocytes",10.2±0.4 pmol/oocyte.h
same,uptake of [3H]phenylalanine and [3H]tryptophan,[1],120 pmol/oocyte.h
same,Vmax of 4F2hc-IU12 induced transport,[1],180±54 pmol/oocyte.h
same,Km,[1],70 µM
same,"inhibition of 4F2hc-IU12 induced 0.1 μM TH (T3) uptake, in words",[1],significantly inhibited
same,control tryptophan uptake (absence of inhibitor),"[6]; 1 μM tryptophan, water-injected oocytes",2.1±0.1 pmol/oocyte.h
same,uptake of [3H]phenylalanine and [3H]tryptophan,[6],10 pmol/oocyte.h
same,effect on nuclear uptake of [125I]T3,[3],inhibit
same,effect on T3-dependent transcriptional activation of a luciferase reporter,[4],inhibit
